Assay results published in patent US11058654B2, “Compositions and methods for the treatment of hemoglobinopathies and thalassemias” (AXCELLA HEALTH INC., priority 2018, dated 2021).
Where two headings read alike, the source gives them in different places.

Legend:
[1] = system: RBCs of healthy whole blood; experiment: RBC deformability (LORRCA elongation index), ex vivo TBHP oxidation of healthy whole blood; format: cell-based, human; settings: healthy donor 2, single amino acid treatments, in words
Description: Whole blood from healthy African American and/or Hispanic donors was obtained from Research Blood Components, LLC based on the following donor selection criteria: Adult age (between 18 and 50 years), normal BMI (<30), and absence of other confounding clinical conditions. Whole blood from SCD donors were obtained from BioIVT based on the following donor selection criteria: Patients with genotypes HbSS, HbSC, HbS/β^0 and at least 1-2 months gap since last blood transfusion. Whole blood was shipped on ice on the same day as blood draw. Upon receipt, the blood sample was aliquoted and stored in the refrigerator until used for studies.
RBC deformability measurements were conducted with the Laser Optical Rotational Red Cell Analyzer (LORRCA) from RR Mechatronics in a temperature-controlled environment (37° C.). Briefly, an even layer of RBCs suspended in polyvinylpyrrolidone (PVP) is subjected to shear stress gradient (0.3 to 30 Pa) through two concentric cylinders and the resulting changes in RBC shape or deformability are measured by a laser beam diffraction pattern. The captured images of RBC shape in response to increasing shear stress are then analyzed by the LORRCA program to calculate Elongation Index (EI).
Healthy RBCs have higher deformability≥0.5 EI and SCD RBCs have lower deformability or EI values as studied by LORRCA ektacytometry in the field. […] The induced hemolysis model in this disclosure involves use of tert-butyl hydroperoxide (TBHP) to lower EI of RBCs.
The ex vivo hemolysis study disclosed here involves overnight treatment of whole blood with vehicle as a control and specific amino acids followed by rapid oxidation (5 min) with TBHP. Method for oxidation of whole blood with tert-butyl hydroperoxide has been used in prior literature (Diederich L, et al, Front Physiol. 2018 May 11; 9:332). RBC deformability or shape changes are then measured with LORRCA ektacytometry.
Whole blood aliquots stored in the fridge were brought up to room temperature while gently shaking on a rocker at low speed for an hour to ensure gradual and uniform suspension of red blood cells prior to deformability measurements. Vehicle control used in the study was 1× Dulbecco's […]) and amino acids disclosed herein were added (at either final […] or 2.5 mM concentration as indicated) to corresponding vehicle and amino acid treatment conditions. The samples were then incubated overnight at 37° C. Next day, 25 μL of whole blood was taken from each treatment condition and added to 5 mL Elon ISO viscous solution from RR Mechatronics. The sample was inverted 15-20 times to ensure proper mixing of the treated RBCs with the Elon ISO solution followed by loading the sample on LORRCA and capturing RBC deformability or shape measurements over the applied shear gradient. The remaining whole blood treatments were returned to incubator (37° C.) until deformability measurements were completed for all treatments. To the remaining whole blood treatment samples, TBHP solution (5.0-6.0 M in Decane, Sigma) was added at 2.5 mM final concentration from a 100 mM freshly prepared stock and incubated for further 5 min at 37° C. 25 μL of this TBHP-treated sample was immediately removed at the end of the 5 min incubation and added to the Elon ISO solution for RBC deformability measurement after oxidation. Included in the Tables 13-15 are EI measurements at ½ EImax shear stress 1.69 Pa and EImax shear stress 30 Pa from these studies and FIG. 1 captures EI measurements for all shear stress points for the indicated treatment conditions.

VCAM-1 = VCAM-1 cell integrated intensity in HLMVEC treated with TNFa; format: cell-based, human; settings: 0.5 ng/mL TNFα; amino acids at 20×; 24 hours; in words
Description: A VEC model was employed to assess the ability of amino acids to influence aspects of vascular dysfunction in SCD. TNFa treatment of healthy donor HLMVEC mimics the SCD disease state and induces expression of adhesion markers ICAM-1 and VCAM-1, and secretion of proinflammatory cytokine IL-6. It is established that levels of ICAM-1, VCAM-1, and IL-6 can contribute to SCD pathology and correlate with the incidence and severity of complications in SCD patients. The VEC model sought to test the ability of amino acids to reduce the TNFa-induced disease phenotype by lowering expression of adhesion markers (ICAM-1 and VCAM-1) and inflammatory cytokines (IL-6) while promoting VEC health and viability.
Primary Human Lung Microvascular Endothelial Cells (HLMVEC; Lonza) were seeded at 6,000 cells per well in Endothelial Cell Growth Basal Medium-2 (Lonza) supplemented with Fetal Bovine Serum (FBS; Lonza), human EGF (Lonza), human VEGF (Lonza), R3-Insulin-like Growth Factor-1 (Lonza), ascorbic acid (Lonza), hydrocortisone (Lonza), human FGF-beta (Lonza), and gentamicin/amphotericin-b (Lonza) in a 96-well plate (Thermo Fisher). The cells were incubated for 45 minutes at room temperature, then incubated overnight at 37° C./5% CO2.
Following overnight incubation, cell were washed once with 150 μL of Dulbecco's phosphate buffered saline (DPBS; Gibco), and then treated with Endothelial Basal Medium MCB-131 (amino acid, glucose, sodium pyruvate, and phenol red free; US Biologicals) containing a defined custom amino acid concentration based on physiological concentrations in blood of patients with SCD (thus recapitulating observed metabolic imbalances such as the depletion of certain essential amino acids including arginine and aspartate and enrichment of certain non-essential amino acids including glutamate and asparagine), dialyzed FBS (Hyclone), human EGF (Lonza), human VEGF (Lonza), R3-Insulin-like Growth Factor-1 (Lonza), ascorbic acid (Lonza), hydrocortisone (Lonza), human FGF-beta (Lonza), and gentamicin/amphotericin-b (Lonza), glucose, 10 mM HEPES, sodium pyruvate, and sodium bicarbonate supplemented with one of the following: • a. PBS (vehicle control), • b. 0.5 ng/mL Tumor Necrosis Factor alpha (TNFα) and PBS, or; • c. 0.5 ng/mL TNFα and amino acid treatments at 20× mean physiological concentrations in plasma based on values published in the Human Metabolome Database (HMDB) in PBS.
After 24 hours of treatment, cells were washed once with 150 μL of DPBS (Gibco), then fixed with 4% paraformaldehyde. […]
Antibody binding was detected by fluorescence microscopy using a high content imager (Molecular Devices). Images were analyzed using MetaXpress 6 software to determine the integrated intensity per cell for each wavelength corresponding to ICAM-1 or VCAM-1.

[2] = Plasma pharmacokinetics after oral gavage in male Sprague-Dawley rats; format: in vivo; set-up: AUC(0-t): concentration or dose not given beside the values; settings: rat
Description: A pharmacokinetic (PK) analysis was performed on plasma concentrations of various combinations of amino acid compounds administered by oral gavage to male Sprague-Dawley rats. Four animals were dosed with RCitNacQCarLHKVS, a test article comprising ten amino acid components: arginine, citrulline, N-acetylcysteine, glutamine, carnitine, leucine, histidine, lysine, valine, and serine (Table 19). Animals were fasted for 2 hours prior to dose administration. Plasma samples were taken immediately pre-dose and 0.5, 1, 2, 3, 4, and 5 hours post-dose.
Bioanalysis of collected plasma samples for amino acid content was performed at Axcella Health using an LC-MS method (Section 2.1). Bioanalytical data were analyzed using noncompartmental analysis with Phoenix® WinNonLin® (v8.1).
An LC/MS method utilizing HILIC chromatography and high-resolution mass spectrometry was used to quantify amino acids in rat plasma. The samples were prepared by protein precipitation and spiked with stable-labeled amino acid internal standard for each analyte. […] QCs, spiked into rat plasma, were utilized to assess the accuracy of the method.
PK parameters of test article components were determined from individual rat plasma concentration-time data by employing a noncompartmental approach using Phoenix WinNonlin® (Version 8.1) software. Nominal times were used to calculate the toxicokinetic parameters. […] This program analyzed data using the standard methods described by Gibaldi and Perrier (see M. Gibaldi and D. Perrier, Pharmacokinetics, 2nd edition, New York: Marcel-Dekker, Inc.; 1982.).

TNFa = experiment: LPS-induced TNFa secretion in primary human PBMC-derived macrophages (ELISA); format: cell-based; settings: Donor 2; in words
Description: (§1) Unpurified buffy coats (Research Blood Components) were carefully poured into 50 mL centrifuge tubes and diluted with room temperature Dulbecco's Phosphate Buffered Saline (dPBS) with Calcium and Magnesium (Gibco). Diluted buffy coats were further divided into four total 50 mL centrifuge tubes at 20 mL per tube. Lymphocyte Separation Medium (Corning) was carefully pipetted to the bottom of each centrifuge tube. Mixtures were centrifuged at 850× g for 32 minutes at 20° C. with 0 deceleration and acceleration.
(§2) The PBMC layer was separated from other components after centrifugation and added to new 50 mL centrifuge tube containing 25 mL dPBS. Total volume was brought up to 50 mL with dPBS and centrifuged at 600× g for 10 minutes at 20° C. with acceleration of 9, deceleration of 5. Supernatant was carefully removed from cell pellets. The cell pellets were resuspended using 10 mL dPBS. Total volume was then brought up to 50 mL using dPBS and centrifuged at 450× g for 5 min at 20° C. with acceleration of 9, deceleration of 9. The supernatant removal and cell pellet resuspension was repeated again.
(§3) The supernatant was then carefully removed from cell pellets. Cell pellets were resuspended in 10 mL dPBS without calcium or magnesium and filtered through a 70 uM cell strainer. The total PBMC number was determined using a Cellometer K2 automated cell counter. A total of 5E6 cells were saved for flow cytometric analysis. Remaining cells were centrifuged at 490× g for 5 minutes at 20° C. with acceleration of 9, deceleration of 9.
(§4) CD14+ cells were selected using EasySep™ Human CD14 Positive Selection Kit II ([…] Technologies). Cells were resuspended in cold EasySep™ Buffer ([…] Technologies) at 1×10^8 cells/mL. A total of 100 uL/mL EasySep™ Human CD14 Positive Selection Cocktail II was added to the cell suspension, mixed, and incubated at room temperature for 10 minutes. A total of 100 uL/mL RapidSpheres were added to the mixture and incubated at room temperature for 3 minutes after mixing, then RoboSep buffer was added to bring up the total volume to 10 mL. The mixture in a 15 mL tube was placed in magnet and incubated at room temperature for 3 minutes. Supernatant was discarded and 10 mL fresh EasySep™ buffer was added to 15 mL tube. The addition of RoboSep buffer, mixing, and discarding of supernatant was repeated two more times.
(§5) Negative and positive fractions were centrifuged at 490× g for 5 minutes at 20° C. with acceleration of 9, deceleration of 9, and resuspended in DMEM (Gibco) and 10% Heat Inactivated Fetal Bovine Serum (Atlanta Bio) and Penicillin/Streptomycin. Cells were counted and centrifuged again at […] for 5 minutes at 20° C. with acceleration of 9, deceleration of 9. After centrifugation, cell were resuspended in DMEM (Gibco) and 10% Heat Inactivated Fetal Bovine Serum (Atlanta Bio) and Penicillin/Streptomycin containing 500 U/mL […] and plated at 1-2×10^6 cells/mL on 10 cm tissue culture plates. Cells were kept in 37° C., 5% CO2 in between feedings/harvest.
(§6) Cells were fed every 3-4 days by removing media and unattached cells, centrifuging at 490× g for 5 minutes at 20 C with acceleration of 9, deceleration of 9, and resuspending in fresh DMEM (Gibco) and 10% Heat Inactivated Fetal Bovine Serum (Atlanta Bio) and Penicillin/Streptomycin containing GM-CSF. Resuspended cells were seeded back onto 10 cm tissue culture plates and incubated at 37° C., 5% CO2. Differentiated macrophages were used for subsequent experiments.
(§7) Primary human PMBC derived macrophages were seeded on day 0 at 3.0E4 cells per well in 96-well microplates (ThermoFisher) in Dulbecco's Modified Eagle Medium (DMEM) (Gibco) supplemented with penicillin-streptomycin (Hyclone) and 10% heat inactivated fetal bovine serum (HI-FBS) (Atlanta Bio) and incubated overnight at 37° C., 5% CO2. On day 1, cells were washed once with 150 uL per well DPBS (Gibco) and treated with 75 uL of: • a. […]

IL-6 = experiment: LPS-induced IL-6 secretion in primary human PBMC-derived macrophages (ELISA); format: cell-based; settings: Donor 2; in words
Description: as §1, §2, §3, §4, §5, §6, §7

[3] = plasma, Mean, oral gavage of RCitNacQCarLHKVS, male Sprague-Dawley rats, read-out: AUC0-5 h
[4] = plasma, Mean, oral gavage of RCitNacQCarLHKVS, male Sprague-Dawley rats, read-out: Cmax
[5] = plasma, Mean, oral gavage of RCitNacQCarLHKVS, male Sprague-Dawley rats, read-out: Tmax
[6] = male, Sprague-Dawley, in vivo, po

Row | SMILES | AUC(0-t) [2, 3] [µM·h] | Cmax [2, 4] [µM] | Tmax [2, 5] [h] | also measured
1 | C[N+](C)(C)CC(O)CC(=O)[O-] (stereo not shown) [Car, carnitine] | – | – | – | EI over vehicle control, ½ EImax and EImax [1]: higher than the vehicle; VCAM-1 expression in HLMVEC (VCAM-1): moderate effect
2 | C[N+](C)(C)CC(O)CC(=O)[O-] (stereo not shown) [Carnitine] | 237 | 83.8 | 5 | –
3 | NC(=O)NCCC[C@H](N)C(=O)O [Cit, citrulline] | – | – | – | EI over vehicle control, ½ EImax and EImax [1]: higher than the vehicle; VCAM-1 expression in HLMVEC (VCAM-1): moderate effect
4 | NC(=O)NCCC[C@H](N)C(=O)O [Citrulline] | 2090 | 583 | 2.5 | –
5 | N[C@@H](Cc1c[nH]cn1)C(=O)O [Histidine] | – | – | – | AUC(0-t) [2, 6]: 157 µM·h; Cmax [2, 6]: 41.9 µM; Tmax [2, 6]: 1.25 h
6 | CC[C@H](C)[C@H](N)C(=O)O [Isoleucine] | – | – | – | effect on LPS-induced TNFa secretion (TNFa): increased
7 | CC(C)C[C@H](N)C(=O)O [Leucine] | 586 | 170 | 0.5 | effect on LPS-induced IL-6 secretion (IL-6): increased; effect on LPS-induced TNFa secretion (TNFa): increased
8 | NCCCC[C@H](N)C(=O)O [Lysine] | 1350 | 337 | 1 | –
9 | N[C@@H](CO)C(=O)O [Serine] | 1030 | 285 | 2.25 | –
10 | CC(C)[C@H](N)C(=O)O [Valine] | 463 | 126 | 1 | –
